Assay results published in patent US20230020663A1, “SULFONAMIDE INHIBITORS AS CTPS1 INHIBITORS” (Step Pharma S.A.S., priority 2019, published 2023).

Each molecule was assayed against T1, human CTPS1 (Homo sapiens, UniProt P17812) (assay: Human CTPS1 enzyme inhibition (ADP-Glo Max assay)). Conditions: Table 23, read-out: CTPS1 (Human CTPS1 Enzyme Inhibition data grouped by potency range).
T1 construct: purchased Proteros biostructures GmbH
T1 sequence (P17812 1-591): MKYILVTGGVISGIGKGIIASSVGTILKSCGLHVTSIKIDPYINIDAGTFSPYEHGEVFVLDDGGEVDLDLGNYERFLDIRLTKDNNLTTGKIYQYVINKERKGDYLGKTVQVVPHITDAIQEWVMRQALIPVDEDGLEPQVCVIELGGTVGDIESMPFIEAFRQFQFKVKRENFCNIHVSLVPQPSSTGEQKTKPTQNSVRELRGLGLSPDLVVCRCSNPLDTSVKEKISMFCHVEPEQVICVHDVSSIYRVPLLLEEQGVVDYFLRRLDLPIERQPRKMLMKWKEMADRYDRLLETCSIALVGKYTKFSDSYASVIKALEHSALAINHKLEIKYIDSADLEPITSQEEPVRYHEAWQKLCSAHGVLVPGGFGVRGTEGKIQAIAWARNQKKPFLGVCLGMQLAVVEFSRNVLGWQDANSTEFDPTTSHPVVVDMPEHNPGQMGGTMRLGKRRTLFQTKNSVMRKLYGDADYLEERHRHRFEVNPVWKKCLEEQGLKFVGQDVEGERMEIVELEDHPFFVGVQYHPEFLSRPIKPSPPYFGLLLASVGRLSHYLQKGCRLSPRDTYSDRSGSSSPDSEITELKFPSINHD
Assay type: biochemical
Method: The enzyme inhibitory activities of compounds invented against the target of interest were determined using the ADP-Glo™ Max assay (Promega, UK). Assays for human CTPS1 were performed in 1× assay buffer containing 50 mM Tris, 10 mM MgCl2, 0.01% Tween-20, pH to 8.0 accordingly. Finally, immediately before use, L-cysteine was added to the 1× assay buffer to a final concentration of 2 mM. All reagents are from Sigma-Aldrich unless specified otherwise. Human full length active C-terminal FLAG-Hiss-tag CTPS1 (UniProtKB—P17812, CTPS[1-591]-[…]) was obtained from Proteros biostructures GmbH.
3× human CTPS1 protein was prepared in 1× assay buffer to the final working protein concentration required for the reaction. A 2 uL volume per well of 3× human CTPS1 protein was mixed with 2 uL per well of 3× test compound (compound prepared in 1× assay buffer to an appropriate final 3× compound concentration respective to the concentration response curve designed for the compounds under test) for 10 minutes at 25° C. The enzymatic reaction was then initiated by addition of a 2 uL per well volume of a pre-mixed substrate mix (UltraPure ATP from ADP-Glo™ Max kit (0.31 mM), GTP (0.034 mM), UTP (0.48 mM) and L-glutamine (0.186 mM)) and the mixture was incubated for an appropriate amount of time within the determined linear phase of the reaction at 25° C. under sealed plate conditions with constant agitation at 500 revolutions per minute (rpm). ADP-Glo™ Max reagent was added for 60 minutes (6 μL per well) and subsequently ADP-Glo™ Max development reagent was added for 60 minutes (12 uL per well) prior to signal detection in a microplate reader (EnVision® Multilabel Reader, Perkin Elmer). Following each reagent addition over the course of the assay, assay plates were pulse centrifuged for 30 seconds at 500 rpm.
In all cases, the enzyme converts ATP to ADP and the ADP-Glo™ Max reagent subsequently depletes any remaining endogenous ATP in the reaction system. The ADP-Glo™ Max detection reagent converts the ADP that has been enzymatically produced back into ATP and using ATP as a substrate together with luciferin for the enzyme luciferase, light is generated which produces a detectable luminescence. […] The percentage inhibition produced by each concentration of compound was calculated using the equation shown below: […]
(§1) Percentage inhibition was then plotted against compound concentration, and the 50% inhibitory concentration (IC50) was determined from the resultant concentration-response curve.

IC50 [nM]	Compound
≤ 100	CC(C)Oc1cncc(-c2ccc(NC(=O)C(C)(C)c3ccnc(NS(=O)(=O)C4CC4)n3)nc2)n1 [Example P9]

Same assay, conditions: Table 24, read-out: CTPS1 (Human CTPS1 Enzyme Inhibition data grouped by potency range)

IC50 [nM]	Compound
100 to 1000	CCOc1cncc(-c2ccc(NC(=O)C3(c4ccnc(NS(=O)(=O)N(C)C)n4)CCOCC3)nc2)n1 [Example P248]

Same assay, conditions: Table 25, compounds wherein R1 is C1-5fluoroalkyl, read-out: CTPS1 (Human CTPS1 Enzyme Inhibition data grouped by potency range)

IC50 [nM]	Compound
≤ 100	CCOc1cncc(-c2ccc(NC(=O)C3(c4ccnc(NS(=O)(=O)CC(F)F)n4)CCOCC3)nc2)n1 [Example P271, 4-(2-((2,2-difluoroethyl)sulfonamido)pyrimidin-4-yl)-N-(5-(6-ethoxypyrazin-2-yl)pyridin-2-yl)tetrahydro-2H-pyran-4-carboxamide]
≤ 100	CCOc1cncc(-c2ccc(NC(=O)C(F)(CC)c3ccnc(NS(=O)(=O)CC(F)F)n3)nc2)n1 (stereo not shown) [Example P284, 2-(2-((2,2-difluoroethyl)sulfonamido)pyrimidin-4-yl)-N-(5-(6-ethoxypyrazin-2-yl)pyridin-2-yl)-2-fluorobutanamide]

The molecules below were run on human CTPS1 versus CTPS2 (assay: Human CTPS1 versus CTPS2 selectivity assessment by RapidFire/MS analysis). Conditions: Table 26; RapidFire/MS IC50 ratio.
Assay type: biochemical
Method: Human CTPS1 versus CTPS2 Selectivity Assessment by RapidFire/MS Analysis.
The enzyme inhibitory activities against each target isoform of interest may be determined for the compounds of the invention using an optimised RapidFire high-throughput mass spectrometry (RF/MS) assay format. RF/MS assays for both human CTPS1 and CTPS2 may be performed in assay buffer consisting of 50 mM HEPES (Merck), 20 mM MgCl2, 5 mM KCl, 1 mM DTT, 0.01% Tween-20, pH to 8.0 accordingly. Human full-length active C-terminal FLAG-His-tag CTPS1 (UniProtKB—P17812, CTPS[1-591]-[…]) may be obtained from Proteros biostructures GmbH. Human full length active C-terminal FLAG-His-Avi tagged CTPS2 (UniProtKB-Q9NRF8, CTPS2 [1-586]-[…]) may be obtained from Harker Bio.
Human CTPS (1 or 2) protein may be prepared in 1× assay buffer to the final working protein concentration required for the reaction. A 2 uL volume per well of 2×CTPS (1 or 2) protein may be mixed with 40 nL of compound using acoustic (ECHO) delivery and incubated for 10 minutes at 25° C. Each isoform enzymatic reaction may be subsequently initiated by addition of 2 uL per well of a 2× substrate mix in assay buffer. For hCTPS1: ATP (0.3 mM), UTP (0.2 mM), GTP (0.07 mM) and L-glutamine (0.1 mM). For hCTPS2: ATP (0.1 mM), UTP (0.04 mM), GTP (0.03 mM) and L-glutamine (0.1 mM). Each mixture may be incubated for an appropriate amount of time per isoform within the determined linear phase of the reaction at 25′C. A 60 uL volume of stop solution (1% formic acid with 0.5 uM ^13C9-^15N3-CTP in H2O) may be added and the plate immediately heat-sealed and centrifuged for 10 minutes at 4,000 rpm. Following centrifugation, plates may be loaded onto the Agilent RapidFire microfluidic solid phase extraction system coupled to an API4000 triple quadrupole mass spectrometer (RF/MS) for analysis.
In all cases, the enzyme converts UTP to CTP. Highly specific and sensitive multiple reaction monitoring (MRM) MS methods may be optimised for the detection of the enzymatic reaction product, CTP, and the stable isotope labelled product standard ^13C9-^15N3-CTP. Readout for data analysis may be calculated as the ratio between the peak area of the product CTP and the internal standard ^13C9-^15N3-CTP. For data reporting, the following equation may be used: […]
For each screening plate, the means of the negative (DMSO) and positive control values were used for the calculation of the respective assay window (S/B) and Z′ values. The median of the respective control values was used for calculation of percent inhibition according to the following equation: […]
as §1
Fold selectivity between CTPS1 and CTPS2 was subsequently calculated according to the following equation: […]

Compound	Selectivity (fold selectivity between CTPS1 and CTPS2)
CC(C)Oc1cncc(-c2ccc(NC(=O)C(C)(C)c3ccnc(NS(=O)(=O)C4CC4)n3)nc2)n1 [Example P9]	+++ (>60 fold (+++))
CCOc1cncc(-c2ccc(NC(=O)C(OC)c3ccnc(NS(=O)(=O)C4CC4)n3)cc2)n1 (stereo not shown) [Example P164]	+ (2-30 fold (+))
CCOc1cncc(-c2ccc(NC(=O)C(CC)c3cccc(NS(=O)(=O)C4CC4)n3)nc2)n1 (stereo not shown) [Example P188]	++ (>30-60 fold (++))
CCOc1cncc(-c2ccc(NC(=O)C(CC)c3cccc(NS(=O)(=O)C4CC4)n3)cc2)n1 (stereo not shown) [Example P191]	++ (>30-60 fold (++))
CCOc1cncc(-c2ccc(NC(=O)C(C)(C)c3cncc(NS(=O)(=O)C4CC4)n3)nc2)n1 [Example P195]	+++ (>60 fold (+++))
CCOc1cncc(-c2ccc(NC(=O)C(C)(C)c3cncc(NS(=O)(=O)C4CC4)n3)cc2)n1 [Example P196]	+++ (>60 fold (+++))
CCOc1cncc(-c2ccc(NC(=O)C3(c4cncc(NS(=O)(=O)C5CC5)n4)CCOCC3)nc2)n1 [Example P197]	+++ (>60 fold (+++))
CCOc1cncc(-c2ccc(NC(=O)C(C)(CCOC)c3cncc(NS(=O)(=O)C4CC4)n3)nc2)n1 (stereo not shown) [Example P198]	+++ (>60 fold (+++))
CCOc1cncc(-c2ccc(NC(=O)C(F)(CC)c3cncc(NS(=O)(=O)C4CC4)n3)nc2)n1 (stereo not shown) [Example P200]	++ (>30-60 fold (++))
CCOc1cncc(-c2ccc(NC(=O)C(CC)c3cncc(NS(=O)(=O)C4CC4)n3)nc2)n1 (stereo not shown) [Example P201]	+++ (>60 fold (+++))
CCOc1cncc(-c2ccc(NC(=O)C(CC)c3cncc(NS(=O)(=O)C4CC4)n3)cc2)n1 (stereo not shown) [Example P202]	+++ (>60 fold (+++))
CCOc1cncc(-c2ccc(NC(=O)C(C)(OC)c3cncc(NS(=O)(=O)C4CC4)n3)nc2)n1 (stereo not shown) [Example P205a]	+++ (>60 fold (+++))
CCOc1cncc(-c2ccc(NC(=O)C(C)(OC)c3cncc(NS(=O)(=O)C4CC4)n3)nc2)n1 (stereo not shown) [Example P205b]	++ (>30-60 fold (++))
CCOc1cncc(-c2ccc(C(=O)NC(CC)c3ccnc(NS(=O)(=O)C4CC4)n3)c(F)c2)n1 (stereo not shown) [Example P216]	+++ (>60 fold (+++))
CC(C)Oc1cncc(-c2ccc(C(=O)NC(C)(C)c3cncc(NS(=O)(=O)C4CC4)n3)c(F)c2)n1 [Example P221]	+ (2-30 fold (+))
CC(C)(NC(=O)c1ccc(-c2cncc(C(F)(F)F)n2)cc1)c1cncc(NS(=O)(=O)C2CC2)n1 [Example P222]	+ (2-30 fold (+))

Same assay, conditions: Table 27; RapidFire/MS IC50 ratio

Compound	Selectivity (fold selectivity between CTPS1 and CTPS2)
CCOc1cncc(-c2ccc(NC(=O)C3(c4ccnc(NS(=O)(=O)C5CC5)n4)CCC(=O)CC3)nc2)n1 [Example P226, 1-(2-(Cyclopropanesulfonamido)pyrimidin-4-yl)-N-(5-(6-ethoxypyrazin-2-yl)pyridin-2-yl)-4-oxocyclohexanecarboxamide]	+++ (>60 fold (+++))
CCOc1cncc(-c2ccc(NC(=O)C3(c4ccnc(NS(=O)(=O)C5CC5)n4)CCC(F)(F)CC3)nc2)n1 [Example P242]	+++ (>60 fold (+++))
CCOc1cncc(-c2ccc(NC(=O)C3(c4ccnc(NS(=O)(=O)C5CC5)n4)CCC4(CC3)OCCO4)nc2)n1 [Example P244, 8-(2-(cyclopropanesulfonamido)pyrimidin-4-yl)-N-(5-(6-ethoxypyrazin-2-yl)pyridin-2-yl)-1,4-dioxaspiro[4.5]decane-8-carboxamide]	+++ (>60 fold (+++))
CCOc1cncc(-c2ccc(NC(=O)C3(c4ccnc(NS(=O)(=O)N(C)C)n4)CCOCC3)nc2)n1 [Example P248]	+++ (>60 fold (+++))
CCOc1cncc(-c2ccc(NC(=O)C3(c4ccnc(NS(=O)(=O)C5CC5)n4)CCN(S(C)(=O)=O)CC3)nc2)n1 [Example P251]	+++ (>60 fold (+++))
